Test system: mouse CAIA model
Assay: Murine collagen-antibody induced arthritis model (CAIA)
Type: in vivo
Conditions: 60 mg/kg p.o. b.i.d.
Experimental: ArthritoMabrm antibody cocktail for inducing arthritis and lipopolysaccharide (LPS) from Escherichia Coli serotype O55:B5 were purchased from MD Biosciences (OakdalMNnn., USA, Cat #CIA-MAB-50); PBS 1× (GIBCO, Cat #140190-086) was obtained from ThermoFisher Scientific, and Enbrel® (etanercept) was purchased from Chondrex (L'Isle d'Abeau, France, Cat #3771910).
Five to seven week old BALBc female mice were obtained from Janvier Labs (Le Genest-Saint-Isle, France). Mice were kept on a 12 h light/dark cycle. Temperature was maintained at 22° C., food and water were provided ad libitum.
The therapeutic effects of the compounds of the invention were tested in the mouse CAIA model (MD Biosciences 2008; Nandakumar et al. 2003). At day 1 (D1), mice were randomly divided into equal groups containing 10 mice. […] Bodyweight and clinical score of each mouse was assessed every day except the weekend until the end of the study. […] For histology readouts, right and left hind paws were individually collected in vials (25 mL minimum) filled with 4% buffered formaldehyde for a minimum of 24 h to a maximum of 4 days at RT.
Arthritis was scored according to the method of Khachigian 2006; Lin et al 2007 and Nishida et al. 2004 (Khachigian 2006; Lin et al. 2007; Nishida et al. 2004). […]

COc1cc(-c2cnc3cc(OCCN4CCOCC4)ccn23)cc2c1C(=O)N(CC(F)(F)F)CC2 [Cpd 88, 8-methoxy-6-[7-(2-morpholinoethoxy)imidazo [1,2-a]pyridin-3-yl]-2-(2,2,2-trifluoroethyl)-3,4-dihydroisoquinolin-1-one]
Area Under the Curve (AUC) of clinical score vs. vehicle group: statistically significant reduction of Area Under the Curve (AUC) of clinical score

From patent US12264156B2, “Compounds and pharmaceutical compositions thereof for the treatment of diseases” (GALAPAGOS NV, priority 2018, dated 2025)
